This is an account of results in ChEMBL document CHEMBL1201862, “PubChem BioAssay data set” (2004).

Holding throughout (assay): DTP human tumour cell line panel, 48 h
Assay [1] relates to ACHN.
Assay [2] relates to CCRF-CEM.
The test system of assay [3] is COLO 205.
Assay [4] has as its system EKVX.
Assay [5] relates to HCC 2998.
The test system of assay [6] is HCT-116.
For assay [7], the system named is IGROV-1.
For assay [8], the system named is M14.
The subject of assay [9] is MCF7.
Assay [10] deals with MDA-MB-435.
Assay [11] relates to MDA-N.
The test system of assay [12] is MOLT-4.
Assay [13] concerns NCI-H23.
The test system of assay [14] is NCI-H460.
For assay [15], the system named is NCI-H522.
Assay [16] has as its system RPMI-8226.
The test system of assay [17] is SF-295.
In assay [18] the test system is SW-620.
In assay [19] the test system is U-251.
The subject of assay [20] is UACC-62.

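96-well plates; 48 h exposure; 5 concentrations. Endpoints by linear interpolation between flanking doses. Not reached: highest tested concentration assigned. GI50 marks 50% less growth.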 Activity calls are given as the source filed them. Cut-off read from the data, not from the text of the source: active = GI50 up to about 1.1 µM and inactive = higher.

As usually defined, the GI50 is the concentration giving 50% growth inhibition. For `COC(=O)c1ccc(CCc2cc(O)ccc2O)cc1`, the GI50 was 13.3 µM (inactive) in [1]; 0.67 µM (active) in assay [2]; 23.9 µM (inactive) in assay [3]; 13.3 µM (inactive) in assay [4]; 23.9 µM (inactive) in assay [5]; 10.4 µM (inactive) in assay [6]. Besides, the GI50 in assay [7] is 6.49 µM (inactive); in [8] it was 10.6 µM (inactive); in [9], 7.5 µM (inactive); in [10], 6.08 µM (inactive); in assay [11] it was 5.94 µM (inactive); in assay [12] it was 1.77 µM (inactive). The GI50 in assay [13] is 13.6 µM (inactive); in assay [14], 37 µM (inactive); in assay [15], 0.706 µM (active); in [16], 0.847 µM (active); in assay [17] it was 21.3 µM (inactive); in [18], 6.27 µM (inactive). Moreover, the GI50 in [19] was 7.46 µM (inactive); in assay [20], 14.8 µM (inactive).

Regarding `Cc1nc2ccccc2n1Cc1nnc(N)o1`, the GI50 in assay [1], in assay [2], in [3], in [4], in assay [5] and in [6] was > 100 µM (inactive) throughout. Further, the GI50 was > 100 µM (inactive) in assay [7]; > 100 µM (inactive) in [8]; > 100 µM (inactive) in assay [9]; 0.1 µM (active) in assay [10]; > 100 µM (inactive) in assay [11]; > 100 µM (inactive) in assay [12]. In addition, the GI50 in assay [13], in assay [14], in [15], in [16], in assay [17] and in assay [18] was > 100 µM (inactive) in each case. The GI50 in [19] and in assay [20] was > 100 µM (inactive) throughout.

Take `Cc1nc(SCC(N)=O)c2sc(=S)n(-c3ccccc3)c2n1`: the GI50 in assay [1], in assay [2], in assay [3], in assay [4], in assay [5] and in assay [6] was > 10 µM (inactive) in each case. Further, the GI50 in [7], in [8], in [9], in assay [10], in [11] and in assay [12] was > 10 µM (inactive) in each case. In addition, the GI50 in assay [13], in assay [14], in assay [15], in assay [16], in [17] and in assay [18] was > 10 µM (inactive) in each case. In addition, the GI50 in [19] and in [20] was > 10 µM (inactive) in each case.

As to `Cc1nc(N/N=C/c2ccccc2Cl)[nH]c(=O)c1CCO`, the GI50 is > 100 µM (inactive) in assay [1]; > 100 µM (inactive) in assay [2]; > 100 µM (inactive) in [3]; 86.9 µM (inactive) in [4]; > 100 µM (inactive) in assay [5]; 38.8 µM (inactive) in assay [6]. In addition, the GI50 is 34 µM (inactive) in assay [7]; 87.7 µM (inactive) in assay [8]; 36.2 µM (inactive) in assay [9]; > 100 µM (inactive) in assay [10]; > 100 µM (inactive) in assay [11]; > 100 µM (inactive) in assay [12]. The GI50 in assay [13] is 35.8 µM (inactive); in [14], 80 µM (inactive); in assay [15], 17.9 µM (inactive); in [16], 25.9 µM (inactive); in assay [17] it was 25.2 µM (inactive); in assay [18], > 100 µM (inactive). For the same compound, the GI50 in assay [19] was 49.3 µM (inactive); in assay [20], 34.4 µM (inactive).

With `NC(=O)Cc1nc2c(O)ncnc2n1C1OC(CO)C(O)C1O` (stereo not given), the GI50 in [1], in assay [2], in assay [3], in [4], in assay [5] and in [6] was > 100 µM (inactive) in each case. In addition, the GI50 in [7], in [8], in [9], in assay [10], in assay [11] and in [12] was > 100 µM (inactive) throughout. For the same compound, the GI50 in [13], in [14], in [15], in assay [16], in [17] and in [18] was > 100 µM (inactive) in each case. In addition, the GI50 in [19] and in [20] was > 100 µM (inactive) throughout.

Regarding `Nc1n[nH]c(N)n1` [GUANAZOLE], the GI50 in assay [1] was 1890 µM (inactive); in [2], 1720 µM (inactive); in assay [3], > 8990 µM (inactive); in assay [4], 7350 µM (inactive); in assay [5], 6900 µM (inactive); in [6], 5980 µM (inactive). The GI50 in assay [7] is 7000 µM (inactive); in assay [8], 3310 µM (inactive); in assay [9], 3400 µM (inactive); in [10], > 9750 µM (inactive); in assay [11], 8570 µM (inactive); in [12], 3170 µM (inactive). Moreover, the GI50 in [13] is 5300 µM (inactive); in assay [14], 3270 µM (inactive); in assay [15], 2680 µM (inactive); in [16], 4670 µM (inactive); in assay [17], 2360 µM (inactive); in assay [18], > 9380 µM (inactive). The GI50 in [19] is 3800 µM (inactive); in assay [20], 2620 µM (inactive).
